Experimental data taken from ChEMBL document CHEMBL4330079, “Cyclin G-associated kinase (GAK) affinity and antiviral activity studies of a series of 3-C-substituted isothiazolo[4,3-b]pyridines” (Eur J Med Chem, 2019).
pEC50, pKd: −log10 of the molar value.

Experiments:
[1] = target: T1, Cyclin-G-associated kinase (Homo sapiens, UniProt O14976); assay: Binding affinity to wild type DNA-tagged human GAK (G13 to Y338 residues) expressed in bacterial expression system by quantitative PCR based KINOMEscan assay
T1 sequence (O14976 whole entry): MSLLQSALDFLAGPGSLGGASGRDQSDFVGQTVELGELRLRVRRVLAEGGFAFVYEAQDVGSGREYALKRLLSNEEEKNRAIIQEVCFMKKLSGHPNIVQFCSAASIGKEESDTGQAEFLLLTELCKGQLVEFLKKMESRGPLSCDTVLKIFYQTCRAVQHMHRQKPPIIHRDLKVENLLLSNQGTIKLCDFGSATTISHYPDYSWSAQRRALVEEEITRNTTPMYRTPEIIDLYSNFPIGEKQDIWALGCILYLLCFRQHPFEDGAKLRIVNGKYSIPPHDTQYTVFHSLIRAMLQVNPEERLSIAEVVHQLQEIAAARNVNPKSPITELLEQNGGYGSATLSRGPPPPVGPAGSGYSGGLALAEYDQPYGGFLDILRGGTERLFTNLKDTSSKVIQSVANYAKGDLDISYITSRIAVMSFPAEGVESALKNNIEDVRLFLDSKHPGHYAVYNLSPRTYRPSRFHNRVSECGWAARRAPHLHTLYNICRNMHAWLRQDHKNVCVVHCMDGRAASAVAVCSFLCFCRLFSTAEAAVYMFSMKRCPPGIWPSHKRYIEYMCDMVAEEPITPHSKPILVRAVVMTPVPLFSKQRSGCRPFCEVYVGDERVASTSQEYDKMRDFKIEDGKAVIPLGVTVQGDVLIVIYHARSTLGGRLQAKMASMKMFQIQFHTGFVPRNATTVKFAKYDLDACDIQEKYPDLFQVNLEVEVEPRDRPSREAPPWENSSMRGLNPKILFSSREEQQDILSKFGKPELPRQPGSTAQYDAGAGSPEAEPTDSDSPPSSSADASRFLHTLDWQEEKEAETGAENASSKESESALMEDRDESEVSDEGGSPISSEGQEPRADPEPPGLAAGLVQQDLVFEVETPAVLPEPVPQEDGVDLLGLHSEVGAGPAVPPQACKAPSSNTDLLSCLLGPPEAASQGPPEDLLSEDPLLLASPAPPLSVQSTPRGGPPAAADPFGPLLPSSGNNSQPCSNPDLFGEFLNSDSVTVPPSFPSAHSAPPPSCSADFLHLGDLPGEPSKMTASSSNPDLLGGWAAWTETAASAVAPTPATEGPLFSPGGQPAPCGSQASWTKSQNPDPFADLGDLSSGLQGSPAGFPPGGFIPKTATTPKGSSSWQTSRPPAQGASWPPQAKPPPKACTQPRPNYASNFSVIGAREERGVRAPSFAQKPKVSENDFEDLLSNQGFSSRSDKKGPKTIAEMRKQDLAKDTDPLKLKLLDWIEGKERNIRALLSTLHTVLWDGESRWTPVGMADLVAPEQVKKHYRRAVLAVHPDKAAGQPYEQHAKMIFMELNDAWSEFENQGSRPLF

dengue virus type 2 = assay: Antiviral activity against DENV2 New Guinea C infected in human HuH7 cells after 48 hrs by luciferase reporter gene assay; format: functional, organism-based; conditions: Thailand/NGS-C/1944, Huh-7, 48 h
Huh-7 = assay: Cytotoxicity against human HuH7 cells assessed as reduction in cell viability at 0.01 to 10 uM after 48 hrs by Cell-Titer Glo assay; format: cell-based; conditions: huh-7, 48 h

SMILES | pKd [1] | pEC50 (dengue virus type 2) | Activity (Huh-7)
COc1ccc(-c2cnc3c(-c4ccsc4)snc3c2)cc1OC | 6.07 |  | 
COc1ccc(-c2cnc3c(-c4ccccc4)snc3c2)cc1OC | 6.11 |  | 
COc1ccc(-c2cnc3c(-c4ccc(C#N)cc4)snc3c2)cc1OC | < 4.52 |  | 
COc1ccc(-c2cnc3c(-c4ccc(OC)c(OC)c4)snc3c2)cc1OC |  | 5.47 | Non-Toxic
COc1ccc(-c2cnc3c(C#Cc4ccccc4)snc3c2)cc1OC | < 4.52 |  | 
COc1ccc(-c2cnc3c(-c4ccncc4)snc3c2)cc1OC | 6.28 |  | 
COC(=O)c1ccc(-c2snc3cc(-c4ccc(OC)c(OC)c4)cnc23)cc1 | < 4.52 |  | 
